The values below come from paper PMC5367033, “Inhibitors of BRD4 Protein from a Marine-Derived Fungus Alternaria sp. NH-F6” (Marine Drugs, 2017).

This experiment addresses T1, BRD4 (Homo sapiens, UniProt O60885).
T1 construct: His-tagged BRD4-BD1 (bromodomain 1)
The experiment can be described thus: TR-FRET (HTRF) displacement of biotin-labeled peptide ligand from BRD4-BD1; single dose, […]. Format: biochemical. To be noted: read-out: Inhibition Rate / 10 μM. For orientation: Time-resolved FRET reads energy transfer from a long-lived donor to a nearby acceptor.

For the molecule `O=C1CC[C@]2(O)c3c(ccc(O)c31)-c1ccc(O)c3c1C2[C@@H](O)[C@@H](Cl)[C@H]3O` (stereo partly drawn) [compound 1, 12β-Chloro-3,9α,11β,13β,16-pentahydroxy-8,9,10,11,12,13-hexahydro-6(7H)-one], the inhibition at 10 µM stood at 57.7%.

For `O=C1C=Cc2c3c4c(c(O)ccc4c4ccc(O)c1c24)[C@H](O)[C@H](O)[C@H]3O` [compound 2, 3,11α,12β,13β,16-Pentahydroxy-11,12-dihydroperylen-6(13H)-one], the inhibition at 10 µM amounted to 88.1%.
